The values below come from patent EP0398425A1, “Antirhinoviral piperidinyl, pyrrolidinyl and piperazinyl alkylphenol ethers” (JANSSEN PHARMACEUTICA N.V., priority 1989, dated 1990).

The test system of experiment [1] is Human Rhinovirus serotypes HRV- 2,-29,-39,-85,-9,-15,-51,-59,-63,-89,-41. Nature of the experiment: Picornavirus Minimal Inhibitory Concentration Test (cytopathic effect reduction assay), first panel of rhinoviruses. It counts as cell-based. The conditions noted are these: Human rhinovirus sp.; medium value of the IC50-values of all serotypes of the first panel; Ohio Hela cells, 3 to 5 days at 33°C; IC50 = concentration protecting 50% of the cells from cytopathic effects; read-out: Med₁. As for the experimental part:
(§1) The Minimal Inhibitory Concentration of the compounds of the present invention against the Human Rhinovirus strains (HRV) -2,-9,-14,-15,-29,-39,-41,-42,-45,-51, -59, -63,-70,-72,-85,-86 and -89 was determined by a standard cytopathic effect reduction assay as follows. To each of the ninty six (96) wells of a microtiter 96 well tissue culture plate there was added 60 µl of a Ohio Hela cell maintenance medium [Eagle's Basal medium supplemented with 5% Foetal Calf Serum (FCS)]. To two wells there was added 60 µl of an appropriate starting dilution of a compound of formula (I) and two-fold dilutions were made to cover a wide range of compound concentrations. Subsequently there were added 120 µl of an infectious solution of virus in Eagle's Basal Medium with 2% Hepes buffer, 2% FCS and 30 mM MgCl₂ to all wells except cell and compound controls. Said infectious virus solution having a TCID₅₀-value (Tissue Culture Infectious Dose) of about 100.
(§2) The TCID₅₀-value is the dose of viruses which initiates a cytopathic effect in 50% of the inoculated cells. 150 µl of the thus obtained virus-compound mixtures were then transferred to microtitre plates with subconfluent Ohio Hela Cells, grown in 100 µl of maintenance medium. Appropriate virus controls, cell controls and compound controls were included in each test. Plates were incubated for 3 to 5 days at 33°C in 5% CO₂ atmosphere. […] The IC₅₀-value for each virus-compound series was taken as the concentration in ng/ml that protected 50% of the cells from cytopathic effects with respect to the untreated controls. In the standard test procedure, the compounds were tested against two panels of rhinoviruses, a first panel consisting of serotypes HRV- 2,-29,-39,-85,-9,-15,-51,-59,-63,-89,-41 and the other panel consisting of HRV-42,-45,-14,-70,-72 and -86.
(§3) The IC₅₀-value for each rhinovirus serotype was determined, and the efficacy of each compound was determined in terms of the Med₁-value and Med₂-value, which is the medium value of the IC₅₀-values of all serotypes from the first and second panel respectively.
For orientation: Damage to the host cells serves as the signal in cytopathic effect assays.

Experiment [2] deals with Human Rhinovirus serotypes HRV-42,-45,-14,-70,-72 and -86. Nature of the experiment: Picornavirus Minimal Inhibitory Concentration Test (cytopathic effect reduction assay), second panel of rhinoviruses. It counts as cell-based. The conditions noted are these: Human rhinovirus sp., HRV42; medium value of the IC50-values of all serotypes of the second panel; Ohio Hela cells, 3 to 5 days at 33°C; IC50 = concentration protecting 50% of the cells from cytopathic effects; read-out: Med₂. As for the experimental part: as §1, §2, §3

Each structure is given as a SMILES string. Converted amounts (≈) assume the structure as drawn.

As for `CCOC(=O)c1ccc(OCCC2CCN(C3=NS(=O)(=O)c4ccccc43)CC2)cc1` [Compound 14], the IC50 was found to be 0.053 µg/mL (≈ 0.12 µM) in experiment [1] and 0.344 µg/mL (≈ 0.777 µM) in experiment [2].
For the molecule `CCOC(=O)c1ccc(OCCN2CCN(c3nc(C(=O)OCC)cs3)CC2)cc1` [Compound 34, ethyl 2-[4-[2-[4-(ethoxycarbonyl)phenoxy]ethyl]-1-piperazinyl]-4-thiazolecarboxylate], the IC50 was 0.088 µg/mL (≈ 0.203 µM) in experiment [1] and 0.009 µg/mL (≈ 0.0208 µM) in experiment [2].
Turning to `CCc1noc(-c2ccc(OCCC3CCN(c4nnc(Br)s4)CC3)cc2)n1` [Compound 61], the IC50 was 0.011 µg/mL (≈ 0.0237 µM) in experiment [1] and 0.244 µg/mL (≈ 0.525 µM) in experiment [2].
On to `CCOC(=O)c1ccc(OCCN2CCN(c3nnc(Br)s3)CC2)cc1` [Compound 27], for which the IC50 in experiment [1] came to 0.044 µg/mL (≈ 0.0997 µM); in experiment [2], 0.011 µg/mL (≈ 0.0249 µM).
In the case of `CCOC(=O)c1ccc(OCCCN2CCN(c3nncs3)CC2)cc1` [Compound 35], the IC50 in experiment [1] came out at 0.376 µg/mL (≈ 0.999 µM); in experiment [2], 0.172 µg/mL (≈ 0.457 µM).
Take `CCOC(=O)c1ccc(OCCN2CCN(c3nc4ccccc4s3)CC2)cc1` [Compound 46, ethyl 4-[2-[4-(2-benzothiazolyl)-1-piperazinyl]ethoxy]benzoate]: the figures for the IC50 in experiment [1] and in experiment [2] were 0.312 µg/mL (≈ 0.758 µM) and 0.027 µg/mL (≈ 0.0656 µM), respectively.
On to `CCOC(=O)c1ccc(OCCC2CCN(c3nnc(Br)s3)CC2)cc1` [Compound 17], for which the IC50 in experiment [1] is 0.006 µg/mL (≈ 0.0136 µM); in experiment [2], 0.0705 µg/mL (≈ 0.16 µM).
Take `CCOC(=O)c1ccc(OCCC2CCN(c3nsc4ccccc34)CC2)cc1` [Compound 19, ethyl 4-[2-[1-(1,2-benzisothiazol-3-yl)-4-piperidinyl]ethoxy]benzoate]: the IC50 in experiment [1] turned out to be 0.144 µg/mL (≈ 0.351 µM); in experiment [2], 0.25 µg/mL (≈ 0.609 µM).
`CCOC(=O)c1ccc(OCCCN2CCN(c3nnc(Br)s3)CC2)cc1` [Compound 29]: the IC50 in experiment [1] was determined as 0.175 µg/mL (≈ 0.384 µM); in experiment [2] it was 0.037 µg/mL (≈ 0.0813 µM).
Taken in the same sequence, the figures for `CCOC(=O)c1ccc(OCCC2CCN(c3nc(C(=O)OCC)cs3)CC2)cc1` [Compound 6] were 0.031 µg/mL (≈ 0.0717 µM) and 0.4 µg/mL (≈ 0.925 µM).
With `CCOC(=O)c1ccc(OCCC2CCN(c3nnc(C)s3)CC2)cc1` [Compound 13, ethyl 4-[2-[1-(5-methyl-1,3,4-thiadiazol-2-yl)-4-piperidinyl]ethoxy]benzoate], the IC50 in experiment [1] stood at 0.01 µg/mL (≈ 0.0266 µM); in experiment [2], 0.035 µg/mL (≈ 0.0932 µM).
Take `CCOC(=O)c1ccc(OCCCN2CCN(c3nc(C(=O)OCC)cs3)CC2)cc1` [Compound 49]: the IC50 was 0.156 µg/mL (≈ 0.349 µM) in experiment [1] and 0.097 µg/mL (≈ 0.217 µM) in experiment [2].
